# Test results: US7169813B2, “4-oxo-fenretinide, administered alone and in combination with fenretinide, as preventive and therapeutic agent for cancer” (Fondazione IRCCS “Istituto Nazionale Dei Tumori”, priority 2004, dated 2007)
# Tests used:
# A2780/HPR = A2780/HPR clone versus A2780; cited from earlier work
# A2780 [1] = assay: Growth inhibition (sulforhodamine B assay), single agents and combination; type: cell-based, human; settings: Homo sapiens, A2780, 72 h, read-out: 50% Inhibitory Concentrations (IC50) at 72 h
# Procedure: (§1) The following human ovarian carcinoma cell lines were tested: A2780 was obtained from Dr. R. F. Ozols (National Cancer Institute, Bethesda, Md., USA); IGROV-1 was obtained from Dr. J. Benard (Villejuif, France); OVCA432 was obtained from Dr. R. C. Knapp (Boston, Mass., USA); OAW42 and SKOV-3 were purchased from ATCC (Rockville, Md., USA). A2780/HPR, a 4-HPR— resistant ovarian carcinoma cell line, was obtained in our laboratory by continuous exposure of A2780 cells to increasing concentrations of 4-EPR as previously described (Appierto et al., Br. J. Cancer, 2001, 84:1528–1534; Prinetti et al., J. Biol. Chem., 2003, 278:5574–5583). Briefly, cells surviving 60 transplants in 4-HPR —containing medium (3 transplants at 1 μM, 11 transplants at 2 μM, 8 transplants at 3 μM, and 38 transplants at 5 μM) were cloned by limiting dilution. […] Therefore, A2780/HPR cells were continuously maintained in 5 μM 4-HPR and seeded without 4-HPR in all the experiments performed to test their sensitivity to 4-oxo-4-HPR.
# The following human breast tumor cell lines, obtained from Dr. R. Sutherland (Garvan Institute, Sydney, Australia) were tested: T-47D, BT-20 and MCF-7. The following human neuroblastoma cell lines, purchased from ATCC, were tested: SK-N-BE, SK-N-SH, SK-N-MC, and GI-LI-N. All cell lines were grown in monolayer, in medium containing 10% fetal bovine serum (Invitrogen) in 5% CO2 at 37° C. The medium for A2780, A2780/HPR, IGROV-1, OVCA432, SKOV-3, T-47D, BT-20, MCF-7, GI-LI-N and SK-N-BE cells was RPMI 1640 (Cambrex, Verviers, Belgium) and the medium for OAW42, SK-N-MC and SK-N-SH cells was EMEM (ATCC).
# For the growth inhibition assays, cells were seeded at a density of 3500 cells per well in 96 cluster tissue culture plates, and treated 24 hr after seeding with different concentrations of 4-oxo-4-HPR or 4-HPR. 4-oxo-4-HPR was dissolved in absolute ethanol and 4-HPR (obtained from Dr. J. A. Crowell —NCI Bethesda, Md., USA) was dissolved in Me2SO. […] Control cultures received the same amount of ethanol or Me2SO as the treated cultures. 72 hr after treatment cell number was estimated by using the sulforhodamine B assay according to Monks et al., (J. Natl. Cancer, 1991, 11: 757–766). The survival of treated cells was calculated for the various drug concentrations as percentage of the survival of control cells. The antiproliferative activity of 4-oxo-4-HPR and 4-HPR in each cell line, was tested in three separate experiments and the average values ±SD are reported in FIGS. 2, 3, and 4.
# The antiproliferative effect of the combination of the two drugs, administered at one single dose, was also tested in other ovarian carcinoma cell lines and in breast tumor cell lines. The type of interaction between 4-HPR and 4-oxo-4-HPR was assessed by the method of Drevinko et al., as described in Cancer Biochem. Biophys., 1976, 1:187–195. For this evaluation the drugs were assumed to provide independent effects. The combination index (CI) was calculated as follows: survival fraction (SF) of the combination of 4-HPR+4-oxo-4-HPR divided by (SF 4-HPR×SF 4-oxo-4-HPR). The results for CI are defined as follows: CI=1 indicates an additive effect, CI<1 indicates a supra-additive effect and CI>1 indicates a sub-additive effect.
# A2780 [2] = assay: Apoptosis induction (Cell Death Detection ELISA, DNA fragmentation); type: cell-based, human; settings: 5 μM, 24 hr
# Procedure: Although the mechanism of action of 4-HPR is not well understood, its tumor growth inhibitory effects have been attributed to apoptosis induction (Supino et al., Int. J. Cancer, 1996, 65:491–497). The apoptosis inducing effects of 4-oxo-4-HPR were compared with those of 4-HPR in the human ovarian carcinoma cell line A2780 and in its counterpart A2780/HPR, with induced resistance to 4-HPR. Apoptosis was evaluated by a Cell Death Detection ELISA Plus Assay Kit (Roche Diagnostic GmbH, Germany) according to the manufacturer's instructions. This assay quantitates the amount of cytoplasmic histone-associated DNA fragments which increases during apoptosis. Cells were seeded in 96-well cell culture plates and treated the day after with 5 μM 4-oxo-4-HPR or 4-HPR for 24 hr.
# ovarian tumor cell lines = assay: Growth inhibition, ovarian tumor cell lines (FIG. 2); type: cell-based, human; settings: all tested ovarian tumor cell lines; 72 hr
# Procedure: as §1, with “4-oxo-4-HPR. […]” for “4-oxo-4-HPR.”
# For the growth inhibition assays, cells were seeded at a density of 3500 cells per well in 96 cluster tissue culture plates, and treated 24 hr after seeding with different concentrations of 4-oxo-4-HPR or 4-HPR. […] The survival of treated cells was calculated for the various drug concentrations as percentage of the survival of control cells. […]
Compound,resistance of A2780/HPR to 4-HPR (A2780/HPR) [fold],IC50 (A2780 [1]) [nM],"induction of apoptosis (DNA fragmentation, fold versus control cells) (A2780 [2])","reducing tumor cell survival (FIG. 2), compared with 4-HPR, in words (ovarian tumor cell lines)"
"CC1=C(/C=C/C(C)=C/C=C/C(C)=C/C(=O)Nc2ccc(O)cc2)C(C)(C)CCC1 [4-HPR, N-(4-hydroxyphenyl)retinamide, reference compound]",10,,,
"CC1=C(/C=C/C(C)=C/C=C/C(C)=C/C(=O)Nc2ccc(O)cc2)C(C)(C)CCC1=O [4-oxo-4-HPR, 4-oxo-N-(4-hydroxyphenyl)retinamide]",,500,higher than that of 4-HPR,more effective than 4-HPR
